Numbered stars: 1 amine (or outer) side, 2 acyl side, 3 side chain; on linkers, the order of the positions; unused ones are H or OH. Bridge positions count the residues as written; N and C are the ends. Square brackets hold non-standard residues; d marks the D form. Peptide text beside a SMILES is read from it. * marks the point of attachment. X45 = CNS(=O)(=O)c1cccc(-c2ccc(C[C@H](N[*:1])C(=O)[*:2])cc2)c1; Bip(4'-COOH) = N[C@@H](Cc1ccc(-c2ccc(C(=O)O)cc2)cc1)C(=O)O; Trp(1-CH2COOH) = N[C@@H](Cc1cn(CC(=O)O)c2ccccc12)C(=O)O; X52 = Nc1ccc(-c2ccc(C[C@H](N[*:1])C(=O)[*:2])cc2)cn1; X32 = N=C(N)NCc1ccc(C[C@H](N[*:1])C(=O)[*:2])cc1; Phe(3-CF3) = N[C@@H](Cc1cccc(C(F)(F)F)c1)C(=O)O; Ala(morpholin-4-yl) = N[C@@H](CN1CCOCC1)C(=O)O; Phe(4-COOH) = N[C@@H](Cc1ccc(C(=O)O)cc1)C(=O)O; Bip = N[C@@H](Cc1ccc(-c2ccccc2)cc1)C(=O)O; Abu(3R-NH2) = C[C@@H](N)[C@H](N)C(=O)O; Phe(3-Me) = Cc1cccc(C[C@H](N)C(=O)O)c1; Val(3-OH) = CC(C)(O)[C@H](N)C(=O)O; hCha = N[C@@H](CCC1CCCCC1)C(=O)O; hPhe = N[C@@H](CCc1ccccc1)C(=O)O; Cha = N[C@@H](CC1CCCCC1)C(=O)O; Carboxymethyl = O=C(O)C*; NMeA = CN[C@@H](C)C(=O)O; Nle = CCCC[C@H](N)C(=O)O; Orn = NCCC[C@H](N)C(=O)O; Dab = NCC[C@H](N)C(=O)O

T1 sequence (Q15116 25-288): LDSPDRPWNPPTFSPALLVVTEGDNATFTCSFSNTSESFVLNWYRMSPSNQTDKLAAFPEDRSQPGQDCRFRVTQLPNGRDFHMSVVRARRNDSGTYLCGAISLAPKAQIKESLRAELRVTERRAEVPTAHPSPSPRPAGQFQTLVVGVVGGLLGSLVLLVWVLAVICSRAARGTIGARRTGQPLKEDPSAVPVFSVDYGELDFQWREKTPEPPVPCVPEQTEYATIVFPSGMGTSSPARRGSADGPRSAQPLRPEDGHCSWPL

The first assay addresses T1, Alexa fluor-647 labeled human PD-L1-Ig binding to Jurkat cell line over-expressing human PD-1 (Homo sapiens, UniProt Q15116).
T1 construct: expressed in transfected cells; host or cells: Jurkat
Kind of assay: Jurkat-PD-1 Cell Binding High-Content Screening Assay (CBA): Method 3 (Alexa fluor-647 labeled PD-L1-Ig). The following applies: Jurkat-PD-1 cells, Alexa fluor-647 labeled PD-L1-Ig 177 nM; head μM; read-out: CBA Method 3 μM. In outline:
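Readout by high-content imaging of PFA-fixed, Hoechst-stained cells after 1 h with 177 nM (final) Alexa fluor-647 PD-L1-Ig. Compound was added first to hPD-1 Jurkat cells in RPMI plus 10% FCS for 2 h at 37 °C.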
As to `Cc1cccc(C[C@@H]2NC(=O)[C@H](CC(=O)O)NC(=O)[C@H](Cc3ccc(OCC(=O)O)cc3)NC(=O)[C@H](CN3CCOCC3)NC(=O)CSC[C@@H](C(=O)N[C@@H](CCN)C(N)=O)NC(=O)[C@H](CCCN)NC(=O)[C@H](C(C)C)NC(=O)[C@H](CC3CCCCC3)NC(=O)[C@H](CCN)NC(=O)[C@@H](CC(C)C)NC(=O)[C@H](C)N(C)C(=O)[C@H](CCC(N)=O)NC(=O)[C@H](Cc3ccc(-c4ccccc4)cc3)NC(=O)[C@H](Cc3ccc(-c4ccc(N)nc4)cc3)NC2=O)c1` [Example 5104] ({CH2CO}-[Ala(morpholin-4-yl)]Y(Carboxymethyl)D[Phe(3-Me)][X52][Bip]Q[NMeA][dL][Dab][Cha]V[Orn]C[Dab]-NH2; thioether N-14), the IC50 worked out at 0.05 µM.
Still for that read-out and setting: the same measure for `Cc1cccc(C[C@@H]2NC(=O)[C@H](CC(=O)O)NC(=O)[C@H](Cc3ccc(-c4ccc(C(=O)O)cc4)cc3)NC(=O)[C@H](CN3CCOCC3)NC(=O)CSC[C@@H](C(=O)N[C@@H](CCN)C(N)=O)NC(=O)[C@H](CO)NC(=O)[C@H](C(C)(C)O)NC(=O)[C@H](CC3CCCCC3)NC(=O)[C@H](Cc3cnc[nH]3)NC(=O)[C@@H](CC(C)C)NC(=O)[C@H](C)N(C)C(=O)[C@H](Cc3ccc(C(=O)O)cc3)NC(=O)[C@H](Cc3ccc(-c4ccccc4)cc3)NC(=O)[C@H](Cc3ccc(-c4ccc(C(=O)O)cc4)cc3)NC2=O)c1` [Example 5122] ({CH2CO}-[Ala(morpholin-4-yl)][Bip(4'-COOH)]D[Phe(3-Me)][Bip(4'-COOH)][Bip][Phe(4-COOH)][NMeA][dL]H[Cha][Val(3-OH)]SC[Dab]-NH2; thioether N-14): 0.11 µM; for `Cc1cccc(C[C@@H]2NC(=O)[C@H](CC(=O)O)NC(=O)[C@H](Cc3ccc(OCC(=O)O)cc3)NC(=O)[C@H](Cc3ccc(CNC(=N)N)cc3)NC(=O)CSC[C@@H](C(=O)N[C@@H](CCN)C(N)=O)NC(=O)[C@H](CCCN)NC(=O)[C@H](C(C)C)NC(=O)[C@H](CC3CCCCC3)NC(=O)[C@H](CCN)NC(=O)[C@@H](CC(C)C)NC(=O)[C@H](C)N(C)C(=O)[C@H](CCC(N)=O)NC(=O)[C@H](Cc3ccc(-c4ccccc4)cc3)NC(=O)[C@H](Cc3ccc(C(=O)O)cc3)NC2=O)c1` [Example 5278] ({CH2CO}-[X32]Y(Carboxymethyl)D[Phe(3-Me)][Phe(4-COOH)][Bip]Q[NMeA][dL][Dab][Cha]V[Orn]C[Dab]-NH2; thioether N-14): 0.31 µM; for `Cc1cccc(C[C@@H]2NC(=O)[C@H](CC(=O)O)NC(=O)[C@H](Cc3ccc(OCC(=O)O)cc3)NC(=O)[C@H](CC3CCCCC3)NC(=O)CSC[C@@H](C(=O)N[C@@H](CCN)C(N)=O)NC(=O)[C@H](CCCN)NC(=O)[C@H](C(C)C)NC(=O)[C@H](CCC3CCCCC3)NC(=O)[C@H](CCN)NC(=O)[C@@H](CC(C)C)NC(=O)[C@H](C)N(C)C(=O)[C@H](CCC(N)=O)NC(=O)[C@H](Cc3ccc(-c4ccccc4)cc3)NC(=O)[C@H](Cc3ccc(C(=O)O)cc3)NC2=O)c1` [Example 5193] ({CH2CO}-[Cha]Y(Carboxymethyl)D[Phe(3-Me)][Phe(4-COOH)][Bip]Q[NMeA][dL][Dab][hCha]V[Orn]C[Dab]-NH2; thioether N-14): 0.38 µM.
With `CCCC[C@@H]1NC(=O)CSC[C@@H](C(=O)N[C@@H](CCN)C(N)=O)NC(=O)[C@H](CCCN)NC(=O)[C@H](C(C)C)NC(=O)[C@H](CC2CCCCC2)NC(=O)[C@H](CCN)NC(=O)[C@@H](CC(C)C)NC(=O)[C@H](C)N(C)C(=O)[C@H](CCC(N)=O)NC(=O)[C@H](Cc2ccc(-c3ccccc3)cc2)NC(=O)[C@H](Cc2ccc(C(=O)O)cc2)NC(=O)[C@H](Cc2cccc(C)c2)NC(=O)[C@H](CC(=O)O)NC(=O)[C@H](Cc2ccc(OCC(=O)O)cc2)NC1=O` [Example 5175] ({CH2CO}-[Nle]Y(Carboxymethyl)D[Phe(3-Me)][Phe(4-COOH)][Bip]Q[NMeA][dL][Dab][Cha]V[Orn]C[Dab]-NH2; thioether N-14), the IC50 amounted to 0.01 µM.
Consider `Cc1cccc(C[C@@H]2NC(=O)[C@H](CC(=O)O)NC(=O)[C@H](Cc3ccc(OCC(=O)O)cc3)NC(=O)[C@H](CC3CCCCC3)NC(=O)CSC[C@@H](C(=O)N[C@@H](CCN)C(N)=O)NC(=O)[C@H](CCCN)NC(=O)[C@H](C(C)C)NC(=O)[C@H](CN3CCOCC3)NC(=O)[C@H](CCN)NC(=O)[C@@H](CC(C)C)NC(=O)[C@H](C)N(C)C(=O)[C@H](CCC(N)=O)NC(=O)[C@H](Cc3ccc(-c4ccccc4)cc3)NC(=O)[C@H](Cc3ccc(C(=O)O)cc3)NC2=O)c1` [Example 5191] ({CH2CO}-[Cha]Y(Carboxymethyl)D[Phe(3-Me)][Phe(4-COOH)][Bip]Q[NMeA][dL][Dab][Ala(morpholin-4-yl)]V[Orn]C[Dab]-NH2; thioether N-14), for which the IC50 is 0.12 µM.

The assay is the same for the next values; noted with them: Jurkat-PD-1 cells, Alexa fluor-647 labeled PD-L1-Ig 177 nM; nM; read-out: CBA Method 3.
Take `Cc1cccc(C[C@@H]2NC(=O)CSC[C@@H](C(=O)N[C@@H](CCN)C(N)=O)NC(=O)[C@H](CCCN)NC(=O)[C@H](C(C)C)NC(=O)[C@H](CC3CCCCC3)NC(=O)[C@H](CCN)NC(=O)[C@@H](CC(C)C)NC(=O)[C@H](C)N(C)C(=O)[C@H](CCC(N)=O)NC(=O)[C@H](Cc3ccc(-c4ccccc4)cc3)NC(=O)[C@H](Cc3ccc(C(=O)O)cc3)NC(=O)[C@H](Cc3cccc(C)c3)NC(=O)[C@H](CC(=O)O)NC(=O)[C@H](Cc3ccc(OCC(=O)O)cc3)NC2=O)c1` [Example 5273] ({CH2CO}-[Phe(3-Me)]Y(Carboxymethyl)D[Phe(3-Me)][Phe(4-COOH)][Bip]Q[NMeA][dL][Dab][Cha]V[Orn]C[Dab]-NH2; thioether N-14): the IC50 was determined as 0.0005 µM.
Same read-out and setting: the figure for `Cc1cccc(C[C@@H]2NC(=O)[C@H](CC(=O)O)NC(=O)[C@H](Cc3ccc(OCC(=O)O)cc3)NC(=O)[C@H](Cc3cn(CC(=O)O)c4ccccc34)NC(=O)CSC[C@@H](C(=O)N[C@@H](CCN)C(N)=O)NC(=O)[C@H](CCCN)NC(=O)[C@H](C(C)C)NC(=O)[C@H](CC3CCCCC3)NC(=O)[C@H](CCN)NC(=O)[C@@H](CC(C)C)NC(=O)[C@H](C)N(C)C(=O)[C@H](CCC(N)=O)NC(=O)[C@H](Cc3ccc(-c4ccccc4)cc3)NC(=O)[C@H](Cc3ccc(C(=O)O)cc3)NC2=O)c1` [Example 5171] ({CH2CO}-[Trp(1-CH2COOH)]Y(Carboxymethyl)D[Phe(3-Me)][Phe(4-COOH)][Bip]Q[NMeA][dL][Dab][Cha]V[Orn]C[Dab]-NH2; thioether N-14) is 0.0044 µM; for `CC(C)C[C@H]1NC(=O)[C@H](C)N(C)C(=O)[C@H](CCC(N)=O)NC(=O)[C@H](Cc2ccc(-c3ccccc3)cc2)NC(=O)[C@H](CCc2ccccc2)NC(=O)[C@H](Cc2cccc(C(F)(F)F)c2)NC(=O)[C@H](CC(=O)O)NC(=O)[C@H](Cc2ccc(OCC(=O)O)cc2)NC(=O)[C@H]([C@@H](C)N)NC(=O)CSC[C@@H](C(=O)N[C@@H](CCN)C(N)=O)NC(=O)[C@H](CCC(=O)O)NC(=O)[C@H](C(C)C)NC(=O)[C@H](CC2CCCCC2)NC(=O)[C@H](CCN)NC1=O` [Example 5215] ({CH2CO}-[Abu(3R-NH2)]Y(Carboxymethyl)D[Phe(3-CF3)][hPhe][Bip]Q[NMeA][dL][Dab][Cha]VEC[Dab]-NH2; thioether N-14) it is 0.001 µM; for `CC(C)C[C@H]1NC(=O)[C@H](C)N(C)C(=O)[C@H](CCC(N)=O)NC(=O)[C@H](Cc2ccc(-c3ccccc3)cc2)NC(=O)[C@H](Cc2ccc(-c3ccc(C(=O)O)cc3)cc2)NC(=O)[C@H](Cc2cccc(C(F)(F)F)c2)NC(=O)[C@H](CC(=O)O)NC(=O)[C@H](Cc2ccc(C(=O)O)cc2)NC(=O)[C@H](Cc2ccc(OCC(=O)O)cc2)NC(=O)CSC[C@@H](C(=O)N[C@@H](CCN)C(N)=O)NC(=O)[C@H](CCCN)NC(=O)[C@H](C(C)C)NC(=O)[C@H](CC2CCCCC2)NC(=O)[C@H](CCN)NC1=O` [Example 5167] ({CH2CO}-Y(Carboxymethyl)[Phe(4-COOH)]D[Phe(3-CF3)][Bip(4'-COOH)][Bip]Q[NMeA][dL][Dab][Cha]V[Orn]C[Dab]-NH2; thioether N-14) it is 0.0003 µM.
With `Cc1cccc(C[C@@H]2NC(=O)[C@H](CC(=O)O)NC(=O)[C@H](Cc3ccc(C(=O)O)cc3)NC(=O)[C@H](CC3CCCCC3)NC(=O)CSC[C@@H](C(=O)N[C@@H](CCN)C(N)=O)NC(=O)[C@H](CCC(=O)O)NC(=O)[C@H](C(C)C)NC(=O)[C@H](CC3CCCCC3)NC(=O)[C@H](CCN)NC(=O)[C@@H](CC(C)C)NC(=O)[C@H](C)N(C)C(=O)[C@H](Cc3ccc(C(=O)O)cc3)NC(=O)[C@H](Cc3ccc(-c4ccccc4)cc3)NC(=O)[C@H](Cc3ccc(C(=O)O)cc3)NC2=O)c1` [Example 5196] ({CH2CO}-[Cha][Phe(4-COOH)]D[Phe(3-Me)][Phe(4-COOH)][Bip][Phe(4-COOH)][NMeA][dL][Dab][Cha]VEC[Dab]-NH2; thioether N-14), the IC50 was 0.0072 µM.
The same measure, in the same setting: the figure for `CNS(=O)(=O)c1cccc(-c2ccc(C[C@@H]3NC(=O)[C@H](Cc4cccc(C)c4)NC(=O)[C@H](CC(=O)O)NC(=O)[C@H](Cc4ccc(OCC(=O)O)cc4)NC(=O)[C@H](CN4CCOCC4)NC(=O)CSC[C@@H](C(=O)N[C@@H](CCN)C(N)=O)NC(=O)[C@H](CCCN)NC(=O)[C@H](C(C)C)NC(=O)[C@H](CC4CCCCC4)NC(=O)[C@H](CCN)NC(=O)[C@@H](CC(C)C)NC(=O)[C@H](C)N(C)C(=O)[C@H](CCC(N)=O)NC(=O)[C@H](Cc4ccc(-c5ccccc5)cc4)NC3=O)cc2)c1` [Example 5108] ({CH2CO}-[Ala(morpholin-4-yl)]Y(Carboxymethyl)D[Phe(3-Me)][X45][Bip]Q[NMeA][dL][Dab][Cha]V[Orn]C[Dab]-NH2; thioether N-14) is 0.0073 µM.
On the same count and under the same terms, the figure for `CC(C)C[C@H]1NC(=O)[C@H](C)N(C)C(=O)[C@H](CCC(N)=O)NC(=O)[C@H](Cc2ccc(-c3ccccc3)cc2)NC(=O)[C@H](CCc2ccccc2)NC(=O)[C@H](Cc2cccc(C(F)(F)F)c2)NC(=O)[C@H](CC(=O)O)NC(=O)[C@H](Cc2ccc(O)cc2)NC(=O)[C@H](CC2CCCCC2)NC(=O)CSC[C@@H](C(=O)N[C@@H](CCN)C(N)=O)NC(=O)[C@H](CCC(N)=O)NC(=O)[C@H](C(C)C)NC(=O)[C@H](CC2CCCCC2)NC(=O)[C@H](CCN)NC1=O` [Example 5241] ({CH2CO}-[Cha]YD[Phe(3-CF3)][hPhe][Bip]Q[NMeA][dL][Dab][Cha]VQC[Dab]-NH2; thioether N-14) is 0.0004 µM.
